Assays:
[1] = biological target: fully phosphorylated, active Mouse ERK2 protein (Mus musculus (Mouse), UniProt P63085); experiment: Active ERK2 (aERK) IMAP assay, condition 1; type: biochemical; details: aERK assay condition 1, 30 μM ATP
Procedure: Active ERK2 (aERK) Assay: (Unless Indicated Otherwise, the Data Provided for aERK was obtained using Condition 1)
Activated ERK2 activity was also determined in the IMAP assay format using the procedure outlined above. […] Reactions proceeded for 30 minutes before termination by addition of 60 μl IMAP detection beads in binding buffer. Plates were read as above after 30 minute binding equilibration.

ERK protein = ERK protein (Mus musculus, UniProt P63085); experiment: TdF (Temperature Dependence Fluorescence, thermal shift) assay for ERK; type: binding; details: 3 μM ERK protein, uncertainty estimated ±50%, read-out: Kd TdF
ERK protein, sequence (P63085 2-358 limits assumed): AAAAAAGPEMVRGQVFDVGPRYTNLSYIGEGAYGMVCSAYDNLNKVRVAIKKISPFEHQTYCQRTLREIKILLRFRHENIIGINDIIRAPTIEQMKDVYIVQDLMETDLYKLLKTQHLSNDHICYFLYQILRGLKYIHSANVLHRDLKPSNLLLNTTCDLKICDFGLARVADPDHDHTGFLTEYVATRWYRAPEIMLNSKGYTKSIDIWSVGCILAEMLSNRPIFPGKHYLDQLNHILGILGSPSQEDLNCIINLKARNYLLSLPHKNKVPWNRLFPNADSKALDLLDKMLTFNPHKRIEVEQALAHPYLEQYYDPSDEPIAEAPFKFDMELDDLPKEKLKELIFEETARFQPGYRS
Text: Assays: TdF Assay for ERK […] The TdF assay was mainly conducted in the 96-well based CHROMO-4 real time fluorescence plate reader (BioRad). The Sypro Orange (Sigma-Aldrich), environmentally sensitive fluorescence dye, was used to monitor the protein folding-unfolding transition. Protein-ligand binding was gauged by the change (or shift) in the unfolding transition temperature (ΔTm) acquired at protein alone with respect to protein in the presence of ligand of interest. Compound of interest was first prepared in DMSO stock (typical concentration: 10 mM). […] Final percentage of DMSO resided in the sample was 2%. The sample plate was heated from 30° C. to 90° C. with thermal ramping rate of 1° C./min. […] The instrument thermal stability was ±0.2° C. The melting temperatures (Tm) for ERK protein under aforementioned conditions occurred at 61.0±0.2° C. and 64.8±02° C. respectively. Theoretical Basis for TdF-Based Ligand Binding Affinity Constant […] In brief, the binding constant of the ligand at the Tm is expressed as below: [formula] where T0 is the midpoint of unfolding for unliganded protein and Tm is the midpoint of unfolding in presence of ligand. [LTm] is free ligand at Tm. The ΔHu and ΔCpu are the enthalpy of unfolding and heat capacity change of unfolding for the protein respectively. Following algorithm derived by Winsor and coworker, the T0, ΔHu and ΔCpu can be determined separately from nonlinear regression fitting the protein alone melting curve: Where F(T) is the observed fluorescence intensity at any temperature T, Yn and Yu are the predicted fluorescence intensities for fully folded and unfolded protein, respectively; mn and mu are slope correction for changes in Yn and Yu with respect to changes in temperature (analogously replace T0 with Tm in the above equation for liganded protein to yield Tm). […] [formula] where ΔHL (T) is the van't Hoff enthalpy of ligand binding at temperature T and ΔCpL is the heat capacity upon ligand binding. For simplicity, the ΔCpL and ΔHL (T) were set to zero and −7 kcal/mol respectively.

fully phosphorylated, active Mouse ERK2 protein, sequence (P63085 whole entry): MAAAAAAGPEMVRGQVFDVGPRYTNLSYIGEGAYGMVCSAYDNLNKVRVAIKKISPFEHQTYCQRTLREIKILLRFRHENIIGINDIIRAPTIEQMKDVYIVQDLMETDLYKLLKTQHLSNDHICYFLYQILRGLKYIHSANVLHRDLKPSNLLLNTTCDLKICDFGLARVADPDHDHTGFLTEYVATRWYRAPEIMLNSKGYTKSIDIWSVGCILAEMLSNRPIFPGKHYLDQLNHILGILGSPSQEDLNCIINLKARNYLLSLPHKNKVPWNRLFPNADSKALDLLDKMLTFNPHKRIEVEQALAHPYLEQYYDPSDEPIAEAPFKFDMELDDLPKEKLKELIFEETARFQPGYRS

Row | Compound | IC50 [1] | Kd (ERK protein)
1 | COc1cc(-c2n[nH]c3ccc(C(=O)N[C@@H]4CCCN(Cc5ccccc5F)C4)cc23)ccn1 | 112 nM | 0.81 nM
2 | O=C(N[C@@H]1CCCN(Cc2ccccc2F)C1)c1ccc2[nH]nc(-c3ccnc(C4CC4)c3)c2c1 | 33.2 nM | 0.4 nM
3 | CCc1cc(-c2n[nH]c3ccc(C(=O)N[C@@H]4CCCN(Cc5ccccc5F)C4)cc23)ccn1 | 19.8 nM | 0.4 nM
4 | Cc1cc(-c2n[nH]c3ccc(C(=O)N[C@@H]4CCCN(Cc5ccccc5F)C4)cc23)ccn1 | 10.7 nM | 0.5 nM
5 | O=C(N[C@@H]1CCCN(Cc2ccccc2F)C1)c1ccc2[nH]nc(-c3ccnc(C(F)(F)F)c3)c2c1 | 507 nM | 6.6 nM
6 | COc1cccc(F)c1CN1CCCC(NC(=O)c2ccc3[nH]nc(-c4ccc5c(c4)CCO5)c3c2)C1 (stereo not drawn) | 33 nM | 0.52 nM
7 | CC1CC(NC(=O)c2ccc3[nH]nc(-c4ccncc4)c3c2)CN(Cc2ccccc2F)C1 (stereo not drawn) | 16.4 nM | 0.052 nM
8 | Cn1cc(CN2CCC[C@@H](NC(=O)c3ccc4[nH]nc(-c5ccc6c(c5)CCO6)c4c3)C2)c2ccccc21 | 158 nM | 11 nM
9 | Cc1cc(-c2n[nH]c3ccc(C(=O)N[C@@H]4CCCN(Cc5ccccc5O)C4)cc23)ccn1 | 140 nM | 2.36 nM
10 | COc1cccc(F)c1CN1CCC[C@@H](NC(=O)c2ccc3[nH]nc(-c4ccnc(C)c4)c3c2)C1 | 4.98 nM | 0.22 nM
11 | Cc1cc(-c2n[nH]c3ccc(C(=O)N[C@@H]4CCCN(Cc5c(F)cccc5F)C4)cc23)ccn1 | 29.7 nM | 0.51 nM
12 | CC(=O)Nc1cc(-c2n[nH]c3ccc(C(=O)N[C@@H]4CCCN(Cc5ccccc5F)C4)cc23)ccc1O | 74.7 nM | 0.48 nM
13 | COc1cccc(F)c1CN1CCC[C@@H](NC(=O)c2ccc3[nH]nc(-c4ccc(O)c(NC(C)=O)c4)c3c2)C1 | 64.9 nM | 0.66 nM
14 | CC(=O)Nc1cc(-c2n[nH]c3ccc(C(=O)N[C@@H]4CCCN(Cc5c(F)cccc5F)C4)cc23)ccc1O | 224 nM | 1.29 nM
15 | COc1ccccc1CN1CCC[C@@H](NC(=O)c2ccc3[nH]nc(-c4ccc(O)c(NC(C)=O)c4)c3c2)C1 | 254 nM | 1.29 nM
16 | CCCOc1ccccc1CN1CCC[C@@H](NC(=O)c2ccc3[nH]nc(-c4ccnc(C)c4)c3c2)C1 | 246 nM | 1.72 nM
17 | COc1cccc(F)c1CN1CCC[C@@H](NC(=O)c2ccc3[nH]nc(-c4ccc5sccc5c4)c3c2)C1 | 807 nM | 0.15 nM
18 | COc1cccc(F)c1CN1CCC[C@@H](NC(=O)c2ccc3[nH]nc(-c4ccc5occc5c4)c3c2)C1 | 495 nM | 0.21 nM
19 | COc1cccc(F)c1CN1CCC[C@@H](NC(=O)c2ccc3[nH]nc(-c4ccc5cn[nH]c5c4)c3c2)C1 | 163 nM | 0.27 nM

Row | Compound | IC50 [1] | Kd (ERK protein)
20 | COc1cccc(F)c1CN1CCC[C@@H](NC(=O)c2ccc3[nH]nc(-c4ccc(S(=O)(=O)N(C)C)cc4)c3c2)C1 | 359 nM | 2.63 nM
21 | COc1cccc(F)c1CN1CCC[C@@H](NC(=O)c2ccc3[nH]nc(-c4cccc(NC(C)=O)c4)c3c2)C1 | 286 nM | 1.38 nM
22 | COc1cccc(F)c1CN1CCC[C@@H](NC(=O)c2ccc3[nH]nc(-c4ccc(C(C)=O)cc4)c3c2)C1 | 189 nM | 0.9 nM
23 | COc1cccc(F)c1CN1CCC[C@@H](NC(=O)c2ccc3[nH]nc(-c4cccc(C(C)=O)c4)c3c2)C1 | 609 nM | 2.01 nM
24 | COc1cccc(F)c1CN1CCC[C@@H](NC(=O)c2ccc3[nH]nc(-c4ccc(C#N)cc4)c3c2)C1 | 155 nM | 0.24 nM
25 | COc1cccc(F)c1CN1CCC[C@@H](NC(=O)c2ccc3[nH]nc(-c4cccc(C#N)c4)c3c2)C1 | 264 nM | 0.83 nM
26 | COc1cccc(F)c1CN1CCC[C@@H](NC(=O)c2ccc3[nH]nc(-c4ccc(S(C)(=O)=O)cc4)c3c2)C1 | 195 nM | 1.37 nM
27 | COc1cccc(F)c1CN1CCC[C@@H](NC(=O)c2ccc3[nH]nc(-c4ccc(N)c(OC(C)=O)c4)c3c2)C1 | 483 nM | 6.5 nM
28 | Cc1cc(-c2n[nH]c3ccc(C(=O)N[C@@H]4CCCN(Cc5csc6ccccc56)C4)cc23)ccn1 | 18.7 nM | 0.53 nM
29 | Cc1cc(-c2n[nH]c3ccc(C(=O)N[C@@H]4CCCN(Cc5ccccc5Cl)C4)cc23)ccn1 | 28.1 nM | 0.2 nM
30 | CC(=O)n1cc(CN2CCC[C@@H](NC(=O)c3ccc4[nH]nc(-c5ccnc(C)c5)c4c3)C2)c2ccccc21 | 154 nM | 1.95 nM
31 | Cc1cc(-c2n[nH]c3ccc(C(=O)N[C@@H]4CCCN(Cc5c(C)cccc5C)C4)cc23)ccn1 | 89 nM | 0.13 nM
32 | Cc1cc(-c2n[nH]c3ccc(C(=O)N[C@@H]4CCCN(Cc5cn(C)c6ccccc56)C4)cc23)ccn1 | 21.5 nM | 1.38 nM
33 | Cc1cc(-c2n[nH]c3ccc(C(=O)N[C@@H]4CCCN(Cc5cc6ccccc6n5C)C4)cc23)ccn1 | 41.7 nM | 0.21 nM
34 | CCn1cc(-c2n[nH]c3ccc(C(=O)N[C@@H]4CCCN(Cc5c(F)cccc5OC)C4)cc23)cn1 | 114 nM | 1.59 nM
35 | COc1cccc(F)c1CN1CCC[C@@H](NC(=O)c2ccc3[nH]nc(-c4ccc5cncn5c4)c3c2)C1 | 4.02 nM | 0.1 nM
36 | COc1cccc(F)c1CN1CCC[C@@H](NC(=O)c2ccc3[nH]nc(-c4ccc5nc(C)oc5c4)c3c2)C1 | 16.4 nM | 0.1 nM
37 | COc1cccc(F)c1CN1CCC[C@@H](NC(=O)c2ccc3[nH]nc(-c4ccc5oc(C)nc5c4)c3c2)C1 | 45.6 nM | 0.6 nM
38 | Cc1cc(-c2n[nH]c3ccc(C(=O)N[C@@H]4CCCN(Cc5cc6ccccc6o5)C4)cc23)ccn1 | 15.1 nM | 1.43 nM

Row | Compound | IC50 [1] | Kd (ERK protein)
39 | Cc1cc(-c2n[nH]c3ccc(C(=O)N[C@@H]4CCCN(Cc5cc(F)c(Cl)cc5Cl)C4)cc23)ccn1 | 660 nM | 9.76 nM
40 | Cc1cc(-c2n[nH]c3ccc(C(=O)N[C@@H]4CCCN(Cc5cc6ccccc6s5)C4)cc23)ccn1 | 90.1 nM | 3.97 nM
41 | Cc1cc(-c2n[nH]c3ccc(C(=O)N[C@@H]4CCCN(Cc5ccncn5)C4)cc23)ccn1 | 507 nM | 20.5 nM
42 | COc1cccc(CN2CCC[C@@H](NC(=O)c3ccc4[nH]nc(-c5ccnc(C)c5)c4c3)C2)n1 | 220 nM | 2.33 nM
43 | COc1cccc(F)c1CN1C[C@@H](NC(=O)c2ccc3[nH]nc(-c4ccc5nccn5c4)c3c2)CCC1=O | 663 nM | 17.7 nM
44 | [2H]C(c1c(F)cccc1OC)N1CCC[C@@H](NC(=O)c2ccc3[nH]nc(-c4ccnc(C)c4)c3c2)C1 (stereo partly drawn) | 13.3 nM | 0.35 nM
45 | COC(=O)C1CC(NC(=O)c2ccc3[nH]nc(-c4ccnc(C)c4)c3c2)CN(Cc2c(F)cccc2OC)C1 (stereo not drawn) | 146 nM | 3.79 nM
46 | Cc1cc(-c2n[nH]c3ccc(C(=O)N[C@@H]4CCCN(Cc5ncccc5F)C4)cc23)ccn1 | 234 nM | 1.89 nM
47 | Cc1cc(-c2n[nH]c3ccc(C(=O)N[C@@H]4CCCN(Cc5scnc5C)C4)cc23)ccn1 | 875 nM | 20.3 nM
48 | COc1ccsc1CN1CCC[C@@H](NC(=O)c2ccc3[nH]nc(-c4ccnc(C)c4)c3c2)C1 | 137 nM | 0.97 nM
49 | [2H]C1(N2CCC[C@@H](NC(=O)c3ccc4[nH]nc(-c5ccnc(C)c5)c4c3)C2)CCc2ccccc21 (stereo partly drawn) | 62.5 nM | 0.34 nM
50 | COc1cccc(F)c1CN1CC(NC(=O)c2ccc3[nH]nc(-c4ccc5nccn5c4)c3c2)CC(C(=O)O)C1 (stereo not drawn) | 64.7 nM | 0.26 nM
51 | Cc1cc(-c2n[nH]c3ccc(C(=O)N[C@@H]4CCCN(C(C)c5ccccc5)C4)cc23)ccn1 (stereo partly drawn) | 128 nM | 4.4 nM
52 | Cc1cc(-c2n[nH]c3ccc(C(=O)NC4CCCN(Cc5ncccn5)C4)cc23)ccn1 (stereo not drawn) | 923 nM | 130 nM
53 | COc1cccc(F)c1CN1CC(CO)CC(NC(=O)c2ccc3[nH]nc(-c4ccc5nccn5c4)c3c2)C1 (stereo not drawn) | 140 nM | 1.68 nM
54 | Cc1cc(-c2n[nH]c3ccc(C(=O)N[C@@H]4CCCN(CCc5ccccc5F)C4)cc23)ccn1 | 98.8 nM | 4.8 nM
55 | Cc1cc(-c2n[nH]c3ccc(C(=O)N[C@@H]4CCCN(CC(=O)c5ccccc5F)C4)cc23)ccn1 | 32.9 nM | 2.4 nM
56 | COc1cccc(F)c1CN1C[C@H]2C[C@@H]1[C@H](NC(=O)c1ccc3[nH]nc(-c4ccc5nn(C)cc5c4)c3c1)C2 | 527 nM | 85.2 nM
57 | Cn1cc2cc(-c3n[nH]c4ccc(C(=O)NC5C[C@@H]6C[C@H]5N(Cc5c(F)cccc5F)C6)cc34)ccc2n1 (stereo partly drawn) | 881 nM | 3.29 nM
